In brackets after ≈: the same amount, converted by molar mass. Activity calls are given as the source filed them. The calls are words filed in the database; no cut-off is given here.
How the values were obtained:
[1] = test system: Rattus norvegicus; experiment: Antiinflammatory activity in adjuvant-induced arthritis rat model assessed as inhibition of paw swelling at 10 mg/kg administered 15 days post adjuvant challenge; assay type: functional, organism-based
[2] = test system: Rattus norvegicus; experiment: Analgesic activity in […]-induced rat joint pain model assessed as inhibition of differential weight bearing at 5 mg/kg, po measured 30 mins post dose; assay type: functional, organism-based
[3] = Aqueous solubility of compound at pH 6 after 20 hrs by HPLC analysis; assay type: physicochemical
[4] = molecular target: T1, Prostaglandin E2 receptor EP4 subtype (Homo sapiens, UniProt P35408); experiment: Antagonist activity at EP4 receptor in LPS-stimulated human whole blood assessed as inhibition of PGE2-induced TNF-alpha release pretreated for 30 mins followed by addition of PGE2 measured after 20 to 24 hrs by immunoassay; assay type: tissue-based
T1 sequence (P35408 whole entry): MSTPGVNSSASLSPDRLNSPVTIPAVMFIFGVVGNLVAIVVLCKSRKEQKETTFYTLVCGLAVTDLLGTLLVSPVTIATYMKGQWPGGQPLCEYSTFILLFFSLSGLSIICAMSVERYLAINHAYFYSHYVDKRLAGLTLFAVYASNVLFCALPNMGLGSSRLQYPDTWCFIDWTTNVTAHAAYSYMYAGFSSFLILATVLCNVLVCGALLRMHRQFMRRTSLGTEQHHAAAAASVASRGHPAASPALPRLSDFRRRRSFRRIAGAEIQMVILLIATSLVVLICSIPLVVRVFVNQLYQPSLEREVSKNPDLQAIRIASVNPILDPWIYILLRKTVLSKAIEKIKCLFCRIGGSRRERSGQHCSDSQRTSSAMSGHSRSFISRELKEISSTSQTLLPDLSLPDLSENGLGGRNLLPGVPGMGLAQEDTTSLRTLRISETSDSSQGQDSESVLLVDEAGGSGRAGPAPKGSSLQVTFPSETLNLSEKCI

[5] = Clearance in rat at 1 mg/kg, iv; assay type: ADME, organism-based; conditions: in vivo
[6] = (§1) Oral bioavailability in rat at 5 mg/kg; assay type: ADME, organism-based; conditions: in vivo
[7] = (§2) AUC in rat at 5 mg/kg, po; assay type: ADME, organism-based; conditions: in vivo
[8] = molecular target: T1, Prostaglandin E2 receptor EP4 subtype; experiment: Antagonist activity at human EP4 receptor expressed in HEK293 cells assessed as inhibition of PGE2-stimulated cAMP production after 1 hr by HTRF assay; assay type: functional, cell-based
[9] = test system: Rattus norvegicus; experiment: as §1; assay type: ADME, organism-based; conditions: in vivo
[10] = test system: Rattus norvegicus; experiment: as §2; assay type: ADME, organism-based; conditions: in vivo
[11] = Oral bioavailability in rat; assay type: ADME, organism-based; conditions: in vivo
[12] = molecular target: Beta-2 adrenergic receptor (Homo sapiens) (UniProt P07550); experiment: Inhibition of human beta-2 adrenergic receptor at 10 uM
Chain of Beta-2 adrenergic receptor (Homo sapiens) (P07550 whole entry, looked up): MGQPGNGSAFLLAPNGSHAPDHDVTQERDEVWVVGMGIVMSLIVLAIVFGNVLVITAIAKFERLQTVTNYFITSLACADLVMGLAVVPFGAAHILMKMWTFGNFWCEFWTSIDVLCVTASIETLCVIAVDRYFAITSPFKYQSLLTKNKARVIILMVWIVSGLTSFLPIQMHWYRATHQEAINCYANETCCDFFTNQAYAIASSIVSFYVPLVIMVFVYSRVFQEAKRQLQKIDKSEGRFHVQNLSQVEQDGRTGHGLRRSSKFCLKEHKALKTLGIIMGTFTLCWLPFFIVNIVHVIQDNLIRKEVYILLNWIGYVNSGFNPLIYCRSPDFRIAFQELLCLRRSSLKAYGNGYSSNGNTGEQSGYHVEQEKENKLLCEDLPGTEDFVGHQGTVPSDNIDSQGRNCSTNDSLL

[13] = Cmax in dog at 5 mg/kg, po; assay type: ADME, organism-based, Canis lupus familiaris; parameters: dose 5 mg/kg, route oral; conditions: in vivo
[14] = test system: Rattus norvegicus; experiment: Analgesic activity in […]-induced po dosed rat joint pain model assessed as inhibition of differential weight bearing measured 30 mins post dose; assay type: functional, organism-based
[15] = species on record: Rattus norvegicus; experiment: Inhibition of rat chloride channel at 10 uM
[16] = AUC in dog at 5 mg/kg, po; assay type: ADME, organism-based, Canis lupus familiaris; conditions: in vivo
[17] = molecular target: Voltage-gated inwardly rectifying potassium channel KCNH2 (Homo sapiens, UniProt Q12809); experiment: Displacement of [3H]astemizole from human ERG upto 100 uM
[18] = molecular target: L-type calcium channel, diltiazem binding site (Homo sapiens, UniProt O60840+Q01668+Q13698+Q13936); experiment: Inhibition of L-type calcium channel diltiazem binding site (unknown origin) at 10 uM; assay type: protein assay
[19] = molecular target: Cytochrome P450 2C9 (Homo sapiens, UniProt P11712); experiment: Inhibition of CYP2C9 (unknown origin); assay type: ADME
[20] = molecular target: D(2) dopamine receptor (Homo sapiens) (UniProt P14416); experiment: Inhibition of human dopamine D2s receptor at 10 uM
Chain of D(2) dopamine receptor (Homo sapiens) (P14416 whole entry): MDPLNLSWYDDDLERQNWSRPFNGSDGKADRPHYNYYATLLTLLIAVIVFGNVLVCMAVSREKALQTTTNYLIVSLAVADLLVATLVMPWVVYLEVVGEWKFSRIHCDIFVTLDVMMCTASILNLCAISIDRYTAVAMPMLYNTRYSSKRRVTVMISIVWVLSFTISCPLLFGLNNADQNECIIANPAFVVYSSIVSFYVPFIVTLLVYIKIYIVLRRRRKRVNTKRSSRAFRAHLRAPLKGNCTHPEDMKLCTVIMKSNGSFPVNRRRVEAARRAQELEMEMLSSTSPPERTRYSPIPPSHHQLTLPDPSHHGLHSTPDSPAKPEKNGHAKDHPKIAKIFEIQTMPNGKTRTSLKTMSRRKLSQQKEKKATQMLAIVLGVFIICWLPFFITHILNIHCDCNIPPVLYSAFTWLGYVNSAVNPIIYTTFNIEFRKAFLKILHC

[21] = Volume of distribution at steady state in rat at 1 mg/kg, iv and 5 mg/kg, po; assay type: ADME, organism-based; conditions: in vivo, read-out: Vdss
[22] = molecular target: Prostaglandin E2 receptor EP3 subtype (Homo sapiens, UniProt P43115); experiment: Binding affinity to human EP3 receptor
Chain of Prostaglandin E2 receptor EP3 subtype (P43115 whole entry): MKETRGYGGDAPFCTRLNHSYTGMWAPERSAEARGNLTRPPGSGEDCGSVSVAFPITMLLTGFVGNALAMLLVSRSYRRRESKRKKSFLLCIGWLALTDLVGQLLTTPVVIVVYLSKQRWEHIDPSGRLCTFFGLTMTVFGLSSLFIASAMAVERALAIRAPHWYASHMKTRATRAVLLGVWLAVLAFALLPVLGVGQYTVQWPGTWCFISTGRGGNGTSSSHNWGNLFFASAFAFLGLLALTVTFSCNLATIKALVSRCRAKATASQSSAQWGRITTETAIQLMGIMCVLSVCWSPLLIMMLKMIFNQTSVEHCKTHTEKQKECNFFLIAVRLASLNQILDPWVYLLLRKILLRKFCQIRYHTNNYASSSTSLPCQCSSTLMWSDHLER

[23] = molecular target: Cytochrome P450 1A2 (Homo sapiens, UniProt P05177); experiment: Inhibition of CYP1A2 (unknown origin); assay type: ADME
Chain of Cytochrome P450 1A2 (P05177 whole entry): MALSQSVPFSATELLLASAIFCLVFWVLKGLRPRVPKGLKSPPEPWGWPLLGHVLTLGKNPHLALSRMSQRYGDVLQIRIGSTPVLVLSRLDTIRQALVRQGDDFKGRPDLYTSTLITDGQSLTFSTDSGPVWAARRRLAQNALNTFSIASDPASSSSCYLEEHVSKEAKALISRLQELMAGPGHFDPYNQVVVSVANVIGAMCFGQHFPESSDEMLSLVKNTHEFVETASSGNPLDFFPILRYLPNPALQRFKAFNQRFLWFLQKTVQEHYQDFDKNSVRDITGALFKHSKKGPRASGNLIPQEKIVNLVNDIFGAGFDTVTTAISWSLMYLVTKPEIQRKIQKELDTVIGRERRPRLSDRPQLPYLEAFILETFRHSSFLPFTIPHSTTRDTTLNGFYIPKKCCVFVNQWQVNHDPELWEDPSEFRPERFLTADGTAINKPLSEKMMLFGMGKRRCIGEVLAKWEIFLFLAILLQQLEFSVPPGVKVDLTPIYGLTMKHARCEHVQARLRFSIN

[24] = molecular target: Prostaglandin E2 receptor EP2 subtype (Homo sapiens, UniProt P43116); experiment: Binding affinity to human EP2 receptor
Chain of Prostaglandin E2 receptor EP2 subtype (P43116 whole entry): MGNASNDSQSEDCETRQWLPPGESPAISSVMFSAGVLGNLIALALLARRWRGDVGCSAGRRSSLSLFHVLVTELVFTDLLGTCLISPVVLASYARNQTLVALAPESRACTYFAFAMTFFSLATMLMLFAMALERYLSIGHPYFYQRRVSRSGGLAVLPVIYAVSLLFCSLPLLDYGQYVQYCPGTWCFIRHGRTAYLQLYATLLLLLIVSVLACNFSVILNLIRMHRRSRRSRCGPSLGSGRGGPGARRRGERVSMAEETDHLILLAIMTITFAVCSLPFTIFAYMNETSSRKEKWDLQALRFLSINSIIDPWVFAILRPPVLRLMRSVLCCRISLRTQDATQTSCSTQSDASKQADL

[25] = molecular target: Adenosine receptor A3 (Homo sapiens) (UniProt P0DMS8); experiment: Inhibition of human adenosine A3 receptor at 10 uM
Chain of Adenosine receptor A3 (Homo sapiens) (P0DMS8 whole entry): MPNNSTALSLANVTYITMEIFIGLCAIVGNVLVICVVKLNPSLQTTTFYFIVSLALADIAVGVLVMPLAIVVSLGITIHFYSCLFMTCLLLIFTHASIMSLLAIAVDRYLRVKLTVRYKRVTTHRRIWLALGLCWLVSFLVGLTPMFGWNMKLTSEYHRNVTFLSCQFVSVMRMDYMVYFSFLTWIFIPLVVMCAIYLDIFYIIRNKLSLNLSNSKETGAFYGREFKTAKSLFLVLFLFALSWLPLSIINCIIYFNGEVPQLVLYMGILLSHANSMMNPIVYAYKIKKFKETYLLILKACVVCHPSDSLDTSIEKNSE

[26] = molecular target: L-type calcium channel, dihydropyridine binding site (Homo sapiens, UniProt O60840+Q01668+Q13698+Q13936); experiment: Inhibition of L-type calcium channel dihydropyridine binding site (unknown origin) at 10 uM; assay type: protein assay
[27] = molecular target: L-type calcium channel, verapamil binding site (Homo sapiens, UniProt O60840+Q01668+Q13698+Q13936); experiment: Inhibition of L-type calcium channel verapamil binding site (unknown origin) at 10 uM; assay type: protein assay
[28] = molecular target: Cytochrome P450 2C19 (Homo sapiens, UniProt P33261); experiment: Inhibition of CYP2C19 (unknown origin); assay type: ADME
[29] = molecular target: Cytochrome P450 2D6 (Homo sapiens, UniProt P10635); experiment: Inhibition of CYP2D6 (unknown origin); assay type: ADME
[30] = Clearance in dog at 1 mg/kg, iv; assay type: ADME, organism-based, Canis lupus familiaris; conditions: in vivo
[31] = Half life in dog at 5 mg/kg, po; assay type: ADME, organism-based, Canis lupus familiaris; conditions: in vivo
[32] = test system: Rattus norvegicus; experiment: Antiinflammatory activity in adjuvant-induced arthritis rat model assessed as inhibition of paw swelling at 10 and 30 mg/kg administered 15 days post adjuvant challenge; assay type: functional, organism-based
[33] = molecular target: Adrenergic receptor alpha-2 (Rattus norvegicus) (UniProt P22086+P19328+P22909); experiment: Inhibition of rat alpha-2 adrenergic receptor at 10 uM
[34] = molecular target: Beta-1 adrenergic receptor (Homo sapiens) (UniProt P08588); experiment: Inhibition of human beta-1 adrenergic receptor at 10 uM
Chain of Beta-1 adrenergic receptor (Homo sapiens) (P08588 whole entry, looked up): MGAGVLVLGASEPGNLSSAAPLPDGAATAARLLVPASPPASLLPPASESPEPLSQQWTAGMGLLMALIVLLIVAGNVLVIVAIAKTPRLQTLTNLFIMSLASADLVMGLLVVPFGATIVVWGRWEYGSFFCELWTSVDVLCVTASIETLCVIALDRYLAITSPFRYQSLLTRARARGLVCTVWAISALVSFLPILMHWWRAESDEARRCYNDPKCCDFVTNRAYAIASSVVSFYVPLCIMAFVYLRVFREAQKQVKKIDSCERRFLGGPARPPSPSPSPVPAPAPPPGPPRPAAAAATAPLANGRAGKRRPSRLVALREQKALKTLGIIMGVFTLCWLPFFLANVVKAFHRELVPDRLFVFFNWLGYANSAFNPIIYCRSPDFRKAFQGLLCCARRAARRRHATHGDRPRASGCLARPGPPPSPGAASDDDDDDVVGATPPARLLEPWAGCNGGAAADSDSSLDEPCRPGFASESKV

[35] = molecular target: Adrenergic receptor alpha-1 (Rattus norvegicus) (UniProt P15823+P23944+P43140); experiment: Inhibition of rat alpha-1 adrenergic receptor at 10 uM
[36] = molecular target: Muscarinic acetylcholine receptor M2 (Homo sapiens) (UniProt P08172); experiment: Inhibition of human muscarinic M2 receptor at 10 uM
Chain of Muscarinic acetylcholine receptor M2 (Homo sapiens) (P08172 whole entry): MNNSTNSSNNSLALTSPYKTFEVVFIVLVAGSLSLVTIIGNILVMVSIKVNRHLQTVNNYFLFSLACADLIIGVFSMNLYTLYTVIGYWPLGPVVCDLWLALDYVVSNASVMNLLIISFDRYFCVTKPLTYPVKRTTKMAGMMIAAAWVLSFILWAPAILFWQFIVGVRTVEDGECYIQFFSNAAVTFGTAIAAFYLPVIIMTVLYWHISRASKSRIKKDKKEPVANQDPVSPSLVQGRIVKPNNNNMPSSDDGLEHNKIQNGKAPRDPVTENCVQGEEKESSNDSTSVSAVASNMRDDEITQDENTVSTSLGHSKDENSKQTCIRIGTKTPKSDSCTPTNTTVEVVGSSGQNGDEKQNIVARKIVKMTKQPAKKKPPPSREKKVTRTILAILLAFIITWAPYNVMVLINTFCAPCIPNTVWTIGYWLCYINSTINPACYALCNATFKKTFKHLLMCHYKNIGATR

[37] = Half life in rat at 5 mg/kg, po; assay type: ADME, organism-based; conditions: in vivo
[38] = molecular target: Sodium-dependent noradrenaline transporter (Homo sapiens) (UniProt P23975); experiment: Inhibition of human Noradrenaline transporter at 10 uM
[39] = molecular target: Acetylcholinesterase (Homo sapiens) (UniProt P22303); experiment: Inhibition of human acetylcholinesterase at 10 uM
Chain of Acetylcholinesterase (Homo sapiens) (P22303 whole entry): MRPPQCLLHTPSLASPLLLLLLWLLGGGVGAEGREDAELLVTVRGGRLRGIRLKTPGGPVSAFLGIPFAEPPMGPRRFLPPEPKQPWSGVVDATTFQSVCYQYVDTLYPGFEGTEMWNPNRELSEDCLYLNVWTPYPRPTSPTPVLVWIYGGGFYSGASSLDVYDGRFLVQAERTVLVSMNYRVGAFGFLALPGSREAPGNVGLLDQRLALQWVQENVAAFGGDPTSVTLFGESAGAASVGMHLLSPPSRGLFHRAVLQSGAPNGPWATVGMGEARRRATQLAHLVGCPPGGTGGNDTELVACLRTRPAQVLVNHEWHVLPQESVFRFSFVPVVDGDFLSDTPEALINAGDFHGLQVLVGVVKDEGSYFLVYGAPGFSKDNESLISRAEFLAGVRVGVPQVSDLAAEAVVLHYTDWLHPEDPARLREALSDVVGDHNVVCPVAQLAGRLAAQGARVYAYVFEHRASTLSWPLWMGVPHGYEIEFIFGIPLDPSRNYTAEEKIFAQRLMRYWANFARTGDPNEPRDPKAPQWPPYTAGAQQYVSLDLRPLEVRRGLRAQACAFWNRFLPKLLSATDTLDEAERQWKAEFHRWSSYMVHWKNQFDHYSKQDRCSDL

[40] = Volume of distribution at steady state in dog at 1 mg/kg, iv and 5 mg/kg, po; assay type: ADME, organism-based, Canis lupus familiaris; conditions: in vivo, read-out: Vdss
[41] = molecular target: Cytochrome P450 2C8 (Homo sapiens, UniProt P10632); experiment: Inhibition of CYP2C8 (unknown origin); assay type: ADME
[42] = molecular target: Cytochrome P450 2B6 (Homo sapiens, UniProt P20813); experiment: Inhibition of CYP2B6 (unknown origin); assay type: ADME
[43] = molecular target: Cytochrome P450 3A4 (Homo sapiens, UniProt P08684); experiment: Inhibition of CYP3A4 (unknown origin); assay type: ADME
[44] = molecular target: Prostaglandin E2 receptor EP1 subtype (Homo sapiens, UniProt P34995); experiment: Binding affinity to human EP1 receptor
Chain of Prostaglandin E2 receptor EP1 subtype (P34995 whole entry): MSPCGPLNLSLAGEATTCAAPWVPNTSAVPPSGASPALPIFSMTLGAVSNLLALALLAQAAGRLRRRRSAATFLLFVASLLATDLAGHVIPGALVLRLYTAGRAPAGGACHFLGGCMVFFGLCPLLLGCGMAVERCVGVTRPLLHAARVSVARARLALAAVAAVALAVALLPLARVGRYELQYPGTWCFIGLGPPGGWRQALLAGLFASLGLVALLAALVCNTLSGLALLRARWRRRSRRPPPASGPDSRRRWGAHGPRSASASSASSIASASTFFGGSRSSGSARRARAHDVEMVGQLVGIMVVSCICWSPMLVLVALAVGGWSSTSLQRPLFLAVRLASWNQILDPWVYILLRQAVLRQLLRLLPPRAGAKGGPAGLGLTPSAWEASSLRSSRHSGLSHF

[45] = molecular target: D(1A) dopamine receptor (Homo sapiens) (UniProt P21728); experiment: Inhibition of human dopamine D1 receptor at 10 uM
[46] = molecular target: Mu-type opioid receptor (Homo sapiens) (UniProt P35372); experiment: Inhibition of human mu opoid receptor at 10 uM
[47] = Oral bioavailability in dog at 5 mg/kg; assay type: ADME, organism-based, Canis lupus familiaris; conditions: in vivo
[48] = molecular target: Histamine H1 receptor (Homo sapiens) (UniProt P35367); experiment: Inhibition of human histamine H1 receptor at 10 uM
[49] = Cmax in rat at 5 mg/kg, po; assay type: ADME, organism-based; parameters: dose 5 mg/kg, route oral; conditions: in vivo

O=C(O)Cc1ccccc1Nc1c(Cl)cccc1Cl
inhibition [1]: Active
inhibition [2]: Active

Cc1cc(C(=O)O)cc(C)c1NC(=O)c1nc(-c2cccc(CO)c2)ccc1C(F)(F)F
solubility at 20 h [3]: 23 µg/mL (≈ 51.8 µM)
IC50 [4]: 121 nM
clearance [5]: 54 mL/min/kg
bioavailability [6]: 16%
AUC [7]: 243 ng·h/mL
IC50 [8]: 0.67 nM

Cc1ccc(-c2cccc(Cl)c2)nc1C(=O)Nc1c(C)ccc(C(=O)O)c1C
IC50 [4]: 637 nM
IC50 [8]: 1.56 nM

Cc1ccc(C(=O)O)c(C)c1NC(=O)c1cc(-c2cccc(CO)c2)ccc1F
solubility at 20 h [3]: 709 µg/mL (≈ 1800 µM)
IC50 [4]: 72.4 nM
F [9]: 11%
AUC [10]: 994 ng·h/mL
IC50 [8]: 4.49 nM

Cc1ccc(C(=O)O)c(C)c1NC(=O)c1cc(-c2cccc(CO)c2)cc2ccccc12
bioavailability [11]: 6%

Cc1ccc(-c2cccc(CO)c2)nc1C(=O)Nc1c(C)cc(C(=O)O)cc1C
solubility at 20 h [3]: 14 µg/mL (≈ 35.9 µM)
IC50 [4]: 56.3 nM
clearance [5]: 7 mL/min/kg
bioavailability [6]: 36%
AUC [7]: 4330 ng·h/mL
IC50 [8]: 0.67 nM

Cc1ccc(C(=O)O)c(C)c1NC(=O)c1cc(-c2cccc(Cl)c2)cc2ccccc12
bioavailability [11]: 100%

Cc1ccc(-c2cccc(CO)c2)nc1C(=O)Nc1c(C)ccc(C(=O)O)c1C
inhibition [12]: 9%
Cmax [13]: 3820 ng/mL
inhibition [14]: Dose-dependent effect
inhibition [15]: -6%
AUC [16]: 10900 ng·h/mL
inhibition (INH) [17]: Not Active
inhibition at 10 µM [18]: -7%
IC50 [19]: > 10000 nM
inhibition [20]: -3%
Vd [21]: 0.16 L/kg
IC50 [22]: > 25000 nM
Ki [22]: > 14000 nM
IC50 [23]: > 10000 nM
solubility at 20 h [3]: 242 µg/mL (≈ 620 µM)
IC50 [4]: 38.7 nM
IC50 [24]: > 25000 nM
Ki [24]: > 18900 nM
inhibition [25]: -7%
inhibition at 10 µM [26]: -46%
inhibition at 10 µM [27]: -10%
IC50 [28]: > 10000 nM
clearance [5]: 2.2 mL/min/kg
IC50 [29]: > 10000 nM
clearance [30]: 3.7 mL/min/kg
half-life [31]: 1.1 h
inhibition [32]: Active
inhibition [33]: -5%
inhibition [34]: 1%
inhibition [35]: -3%
inhibition [36]: 11%
bioavailability [6]: 22%
AUC [7]: 8520 ng·h/mL
half-life [37]: 2.1 h
inhibition [38]: -1%
inhibition [39]: -2%
Vd [40]: 0.97 L/kg
IC50 [41]: > 10000 nM
IC50 [42]: > 10000 nM
IC50 [43]: > 10000 nM
IC50 [44]: > 25000 nM
Ki [44]: > 17500 nM
inhibition [45]: 0%
inhibition [46]: -6%
bioavailability [47]: 48%
inhibition [48]: 5%
Cmax [49]: 1640 ng/mL
inhibition [2]: Active

Cc1ccc(C(=O)O)c(C)c1NC(=O)c1nc(-c2cccc(CO)c2)ccc1C(F)(F)F
solubility at 20 h [3]: 29 µg/mL (≈ 65.3 µM)
IC50 [4]: 59 nM
clearance [5]: 7 mL/min/kg
bioavailability [6]: 13%
AUC [7]: 1540 ng·h/mL
IC50 [8]: 1.94 nM

Cc1cc(C(=O)O)cc(C)c1NC(=O)c1cc(-c2cccc(CO)c2)ccc1F
solubility at 20 h [3]: 774 µg/mL (≈ 1970 µM)
IC50 [4]: 47.8 nM
clearance [5]: 91 mL/min/kg
bioavailability [6]: 12%
AUC [7]: 105 ng·h/mL
IC50 [8]: 0.73 nM

Cc1ccc(-c2cccc(CO)c2)cc1C(=O)Nc1c(C)ccc(C(=O)O)c1C
solubility at 20 h [3]: 783 µg/mL (≈ 2010 µM)
IC50 [4]: 59.5 nM
clearance [5]: 15 mL/min/kg
bioavailability [6]: 7%
AUC [7]: 375 ng·h/mL

Cc1ccc(-c2cccc(CO)c2)cc1C(=O)Nc1c(C)cc(C(=O)O)cc1C
solubility at 20 h [3]: 31 µg/mL (≈ 79.6 µM)
IC50 [4]: 18.7 nM
clearance [5]: 71 mL/min/kg
bioavailability [6]: 13%
AUC [7]: 88 ng·h/mL
IC50 [8]: 0.28 nM

Reference: ChEMBL document CHEMBL3751833, “Discovery of potent aryl-substituted 3-[(3-methylpyridine-2-carbonyl) amino]-2,4-dimethyl-benzoic acid EP4 antagonists with improved pharmacokinetic profile” (Bioorg Med Chem Lett, 2016)
